From patent US20090176742A1, “METHODS RELATING TO THE TREATMENT OF FIBROTIC DISORDERS” (UNIVERSITY OF WASHINGTON, priority 2005, published 2009) come the findings set out here.

In test [1] the test system is TCF/β-catenin transcription. Put plainly: Bat-Gal transgenic mice given intratracheal bleomycin; lung sections stained with X-Gal (reporter for TCF/β-catenin transcription). Format: in vivo. The following applies: ICG-001 5 mg/Kg/day via minipump (subcutaneously). How it is done:
FIG. 14. FIG. 14A-C depicts lung sections taken from Bat-Gal transgenic mice given intratracheal saline or bleomycin and either treated with ICG-001 (5 mgs/Kg/day subcutaneously) or saline as vehicle control. The lungs were sectioned and stained with X-Gal (blue color.) FIG. 14A, intratracheal bleo+saline; FIG. 14B, intracheal bleo+ICG-001; FIG. 14C, saline+saline.
Using this murine model of pulmonary fibrosis in transgenic Bat-Gal mice, ICG-001 5 mg/Kg/day, administered via minipump) blocked >95% of bleomycin-induced TCF/β-catenin transcription.
These mice have a Beta-Galactosidase transgene driven by a TCF/Catenin driven promoter (i.e. a read out for activated Wnt/catenin signaling). The mice were given intratracheal saline or bleomycin and either treated with ICG-001 (5 mgs/Kg/day subcutaneously) or saline as vehicle control. The mice were sacrificed and the lungs sectioned and stained with X-Gal (blue color) A) intratracheal bleo+saline. B) intracheal bleo+ICG-001 C) saline+saline.
The dose was selected because ICG-001 reduces TCF/β-Catenin driven β-Galactosidase expression >95% at 5 mgs/Kg/day.

Test [2] deals with C57/B16 mice treated with intratracheal bleomycin. Nature of the test: Murine model of bleomycin induced pulmonary fibrosis; lung sections stained with trichrome for collagen, plus body weight and survival. In kind it is in vivo. An excerpt: FIG. 15. FIG. 15 depicts lung sections taken from C57/B16 mice treated with intratracheal bleomycin (lower left) or saline (upper left) for 5 days and stained with trichrome ([…]) to stain collagen.
Murine models of bleomycin induced fibrosis have been developed in order to study […] disease progression.
There is an absence of airway epithelium in lower left compared to upper left (see arrow heads) and extensive collagen deposition (lower left). […] Of interest is the upper right (saline treatment) showing lack of normal airway epithelialization, extensive collagen deposition and intra-airway hypercellularity (fibroblasts and inflammatory influx).
The procedures were performed using the animal model as described in Example 2 (FIG. 15), and the sectioned lungs were stained for collagen.

The subject of the next test is S100A4. Put plainly: RT-PCR for S100A4 in bleomycin treated mice. Format: in vivo. The following applies: ICG-001 5 mgs/Kg/day s.c. The text has this:
(§1) FIGS. 16 and 17 show RT-PCR data for S100A4 (FIG. 16) and collagen1A2 (FIG. 17), which are increased in the bleomycin treated mice (treated with saline control).

The next test has as its system collagen1A2. Put plainly: RT-PCR for collagen1A2 in bleomycin treated mice. To be noted: ICG-001 5 mgs/Kg/day s.c. In kind it is in vivo.
Text: as §1

Test [3] has as its system S100A4 (FSP-1, fibroblast specific protein-1). Put plainly: Western blot for S100A4 on whole cell lysates of cultured IPF fibroblasts. In kind it is cell-based, human. How it is done: (§2) FIG. 20. FIG. 20 depicts a Western blots for S100A4 (also know as FSP-1 or fibroblast specific protein-1) and E-Cadherin performed on whole cell lysates of IPF patient fibroblasts cultured in RPMI1640+10% FBS for 2 days and treated with ICG-001.
(§3) Western blots for S100A4 (also know as FSP-1 or fibroblast specific protein-1) and E-Cadherin were performed on whole cell lysates (FIG. 20).

The next test concerns E-Cadherin. Nature of the test: Western blot for E-Cadherin on whole cell lysates of cultured IPF patient fibroblasts. In kind it is cell-based, human. How it is done: as §2, §3
(In general: A western blot detects proteins with antibodies after separation by electrophoresis.)

A further test concerns Aquaporin 5. Nature of the test: Aquaporin 5 immunostaining of lung tissue in the bleomycin mouse model. Format: in vivo, mice. The following applies: bleomycin and ICG-001 versus bleomycin alone. The text has this:
FIG. 22. […] Bleomycin alone, FIG. 22A; bleomycin and ICG-001, FIG. 22B; saline FIG. 22C.
The aquaporins are water channels expressed in a variety of cell types. Aquaporin 5 is involved in the transportation of water across the apical surface of the alveolar epithelium and the epithelia of the submucosal glands in the upper airway and nasopharynx. (Krane, C. M., P.N.A.S. 98:14192-4, 2001; Yang, F. J. Biol. Chem. 278:32173-80, 2003). Because aquaporin 5 is a marker of Type 1 (differentiated) lung epithelium, its expression was assayed in lung tissue created with bleomycin (FIG. 22A), bleomycin and ICG-001 (FIG. 22B), and saline (FIG. 22C), using the animal model as described in Example 2 (FIG. 15), and immunostaining with an antibody specific for Aquaporin 5.

Setting [4] is: bleomycin and ICG-001 versus bleomycin.
The mark [5] stands for this setting: bleomycin for 5 days, then ICG-001 5 mgs/Kg/day for 10 days from the sixth day.
Where [6] appears, read: IPF patient fibroblasts cultured for 2 days.

For the compound `O=C1[C@H](Cc2ccc(O)cc2)N2C(=O)CCN(C(=O)NCc3ccccc3)[C@H]2CN1Cc1cccc2ccccc12` [ICG-001], the “bleomycin-induced TCF/β-catenin transcription (TCF/β-Catenin driven β-Galactosidase expression) blocked/reduced” value in test [1] was greater than 95%. Also, in test [2] (setting [4]), the “alveolar fibrosis (lung sections stained for collagen)” value is recorded as “prevented” and the “interstitial fibrosis (lung sections stained for collagen)” value is “prevented”. For the same compound, the body weight result in test [2] (bleomycin for 5 days, then ICG-001 5 mgs/Kg/day for 10 days) is reported as “regained normal body weight”. Moreover, in test [2] (setting [5]), the “airway appearance in trichrome-stained lung sections” value is “the airway looks essentially normal” and the “collagen levels (trichrome stain)” value is given as “normal collagen levels”. Also, the survival entry in test [2] (bleomycin for 5 days, then ICG-001 5 mgs/Kg/day for 10 days, untreated controls did not survive) is given as “survived”. The “fibrosis over the 25 days of treatment” value in test [2] (bleomycin mouse model, 25 days of treatment) is “reversed fibrosis”. The “disease progression, as judged by reduced mortality, histopathology and endogenous gene expression” value in test [2] (bleomycin murine model, 5 mg/Kg/day) is “not only halted but reversed disease progression”. For the same compound, the “S100A4 message (RT-PCR)” value in the test on S100A4 is “reduced essentially to negative control”. Moreover, the “collagen1A2 message (RT-PCR)” value with collagen1A2 was “reduced essentially to negative control”. Moreover, in test [3] (ATCC IPF cells cultured in RPMI1640+10% FBS for 2 days), the “S100A4 expression (whole cell lysates)” value is given as “decreased”. Also, the “S100A4 expression at the mRNA level” value in test [3] (IPF patient fibroblasts) is recorded as “also true at the mRNA level”. In addition, the “S100A4 expression (Western blot, whole cell lysates)” value in test [3] (setting [6]) was “decreased”. Moreover, in the test with E-Cadherin (IPF patient fibroblasts), the “E-cadherin expression at the mRNA level” value was “also true at the mRNA level”. The “E-cadherin expression (Western blot, whole cell lysates)” value in the test on E-Cadherin (setting [6]) is reported as “increased”. For the same compound, the “aquaporin 5 expression (immunostaining, marker of Type 1 lung epithelium)” value with Aquaporin 5 is listed as “greatly increased”.
